{"source": "patent US20240253033A1", "about": "“MICROFLUIDIC DETECTION SYSTEM WITH ADJUSTABLE FLOW CONTROL” (priority 2022, published 2024)", "key": {"E coli MG1655": {"tested_on": "E coli MG1655", "details": "E coli MG1655 spiked in urine", "description": "To obtain spiked human samples, first human urine was centrifuged at 5000 rcf for 5 minutes to remove large particles. It was subsequently spiked with 5×10^5 CFU ml^−1 and mixed with a solution of Resazurin to a final concentration of 0.02%. No antibiotics were added for the control aliquots, 32 μg/mL Ampicillin was added for resistant aliquots and 16 μg/mL Kanamycin was added for susceptible aliquots. The aliquots were incubated at 37° C. different periods starting from 0 minutes incubation till 60 minutes with a time step of 5 minutes.\nAccording to the Infectious Diseases Society of America (IDSA), 105 CFU ml^−1 and 102 CFU ml^−1 were spiked in-vivo in urine, serum, and nasal swab of donors to simulate urinary tract infection, wound infection, and pneumonia by MRSA, respectively. Human urine was spiked with different concentrations of E. coli (FIG. 32D). As a control the healthy human biofluids were screened as received."}, "E. coli [1]": {"tested_on": "E. coli", "description": "To evaluate the QolorAST performance in clinical settings, a double-blinded clinical study at the McGill University Health Center (MUHC) was performed. 47 patients suspected of urinary tract infections, admitted to MUHC emergency clinics between August 2022 to August 2023 were tested. Specimens were consented, collected from the patients and the experiments were done in microbiology labs in MUHC. Each specimen were divided in 3 to be tested in parallel in the central laboratory of the hospital (quantification, identification and MIC), in the research laboratory (quantification, identification and MIC for 2 antibiotics) and with QolorAST genotypic/phenotypic assays in microbiology lab at MUHC. The device has 24 chambers where the media/resazurin/antibiotic mixes as well as the patient samples are injected mixed. […] Therefore, reagent loading port was preloaded with media, specific concentration antibiotic and resazurin at final concentration of 0.25 mg/mL and urine was added to urine loading port. Thereafter, by pressing the pushing button the urine was mixed with the rest of solution at a volumetric ratio of 1:4 which would be the starting point for incubation and imaging of the samples. The samples were incubated at 37° C. at different timepoints starting from 0 to 60 minutes with a time interval of 10 minutes and the imaging was performed as described above."}, "E. coli [2]": {"tested_on": "E. coli", "experiment": "Standard broth microdilution MIC on isolates from patient urine specimens", "assay_type": "cell-based, Escherichia coli", "description": "For the standard testing the urine specimens were diluted 1/1000 using CamHB and both the original concentration and a 1/1000 dilution of the specimen were plated on BAP with a 1 μL calibrated loop and incubated for 18-20h at 37 C with 5% CO2. The […] concentration is then calculated for all the isolates coming from each specimen. […] At the end of the process, the inoculum quantification is checked by counted CFU from serial dilutions of the inoculum. A growth positive control (inoculum with no antibiotic), a wild type strain of E. Coli (MG1655) and E. Faecalis are also included and processed in the same way as the isolates for each experiment. Finally, each isolate is plated on BAP to control their monoculture state and to be identified by MALDI.\nSamples were tested in parallel using two methods: conventional (Matrix-assisted laser desorption/ionization-time of flight—MALDI/TOF—for bacterial identification and CLSI BMD method for AST) and QolorAST (genotypic for bacterial ID and phenotypic AST). […] Subsequently, we used the images of negative, fastidious, and not fastidious samples to establish a new training for the SVM to classify the specimens into no growth (negative) and growth (positive) classes. We implemented a detection time of 30 mins and a cutoff threshold of 0.6 to differentiate between positive and negative specimens (FIG. 34G)."}}, "note": "Where two headings read alike, the source gives them in different places."}
{"compound": "COc1cc(Cc2cnc(N)nc2N)cc(OC)c1OC", "note": "[Trimethoprim]", "values": [{"measurement": "MIC", "setting": "E coli MG1655", "value": 0.312, "unit": "mL⁻¹"}, {"measurement": "resistance profile based on the CLSI MIC cut off values", "setting": "E coli MG1655", "value": "susceptible"}]}
{"compound": "O=C1CN(/N=C/c2ccc([N+](=O)[O-])o2)C(=O)N1", "note": "[Nitrofurantoin]", "values": [{"measurement": "QolorAST MIC Manual (MA-MIC)", "setting": "E. coli [1]; Patient # 49, urine specimen", "value": 8}, {"measurement": "QolorAST MIC SVM (SVM-MIC)", "setting": "E. coli [1]; Patient # 49, urine specimen", "value": 8}, {"measurement": "QolorAST MIC Manual (MA-MIC)", "setting": "E. coli [1]; Patient # 50, urine specimen", "value": 8}, {"measurement": "QolorAST MIC SVM (SVM-MIC)", "setting": "E. coli [1]; Patient # 50, urine specimen", "value": 8}, {"measurement": "QolorAST MIC Manual (MA-MIC)", "setting": "E. coli [1]; Patient # 51*, urine specimen", "value": "<0.25"}, {"measurement": "QolorAST MIC SVM (SVM-MIC)", "setting": "E. coli [1]; Patient # 51*, urine specimen", "value": "<0.25"}, {"measurement": "QolorAST MIC Manual (MA-MIC)", "setting": "E. coli [1]; Patient # 52, urine specimen", "value": 16}, {"measurement": "QolorAST MIC SVM (SVM-MIC)", "setting": "E. coli [1]; Patient # 52, urine specimen", "value": 16}, {"measurement": "QolorAST MIC Manual (MA-MIC)", "setting": "E. coli [1]; Patient # 53, urine specimen", "value": 4}, {"measurement": "QolorAST MIC SVM (SVM-MIC)", "setting": "E. coli [1]; Patient # 53, urine specimen", "value": 4}, {"measurement": "QolorAST MIC Manual (MA-MIC)", "setting": "E. coli [1]; Patient # 54, urine specimen", "value": 4}, {"measurement": "QolorAST MIC SVM (SVM-MIC)", "setting": "E. coli [1]; Patient # 54, urine specimen", "value": 4}, {"measurement": "QolorAST MIC Manual (MA-MIC)", "setting": "E. coli [1]; Patient # 55, urine specimen", "value": 8}, {"measurement": "QolorAST MIC SVM (SVM-MIC)", "setting": "E. coli [1]; Patient # 55, urine specimen", "value": 8}, {"measurement": "QolorAST MIC Manual (MA-MIC)", "setting": "E. coli [1]; Patient # 56, urine specimen", "value": 8}, {"measurement": "QolorAST MIC SVM (SVM-MIC)", "setting": "E. coli [1]; Patient # 56, urine specimen", "value": 8}, {"measurement": "QolorAST MIC Manual (MA-MIC)", "setting": "E. coli [1]; Patient # 57, urine specimen", "value": 8}, {"measurement": "QolorAST MIC SVM (SVM-MIC)", "setting": "E. coli [1]; Patient # 57, urine specimen", "value": 8}, {"measurement": "QolorAST MIC Manual (MA-MIC)", "setting": "E. coli [1]; Patient # 58, urine specimen", "value": 8}, {"measurement": "QolorAST MIC SVM (SVM-MIC)", "setting": "E. coli [1]; Patient # 58, urine specimen", "value": 8}, {"measurement": "QolorAST MIC Manual (MA-MIC)", "setting": "E. coli [1]; Patient # 59, urine specimen", "value": 16}, {"measurement": "QolorAST MIC SVM (SVM-MIC)", "setting": "E. coli [1]; Patient # 59, urine specimen", "value": 16}, {"measurement": "QolorAST MIC Manual (MA-MIC)", "setting": "E. coli [1]; Patient # 60, urine specimen", "value": 4}, {"measurement": "QolorAST MIC SVM (SVM-MIC)", "setting": "E. coli [1]; Patient # 60, urine specimen", "value": 4}, {"measurement": "QolorAST MIC Manual (MA-MIC)", "setting": "E. coli [1]; Patient # 61, urine specimen", "value": 4}, {"measurement": "QolorAST MIC SVM (SVM-MIC)", "setting": "E. coli [1]; Patient # 61, urine specimen", "value": 4}, {"measurement": "QolorAST MIC Manual (MA-MIC)", "setting": "E. coli [1]; Patient # 62, urine specimen", "value": 6}, {"measurement": "QolorAST MIC SVM (SVM-MIC)", "setting": "E. coli [1]; Patient # 62, urine specimen", "value": 6}, {"measurement": "QolorAST MIC Manual (MA-MIC)", "setting": "E. coli [1]; Patient # 63, urine specimen", "value": 4}, {"measurement": "QolorAST MIC SVM (SVM-MIC)", "setting": "E. coli [1]; Patient # 63, urine specimen", "value": 4}, {"measurement": "QolorAST MIC Manual (MA-MIC)", "setting": "E. coli [1]; Patient # 64, urine specimen", "value": 8}, {"measurement": "QolorAST MIC SVM (SVM-MIC)", "setting": "E. coli [1]; Patient # 64, urine specimen", "value": 8}, {"measurement": "QolorAST MIC Manual (MA-MIC)", "setting": "E. coli [1]; Patient # 65, urine specimen", "value": 8}, {"measurement": "QolorAST MIC SVM (SVM-MIC)", "setting": "E. coli [1]; Patient # 65, urine specimen", "value": 8}, {"measurement": "QolorAST MIC Manual (MA-MIC)", "setting": "E. coli [1]; Patient # 66, urine specimen", "value": 8}, {"measurement": "QolorAST MIC SVM (SVM-MIC)", "setting": "E. coli [1]; Patient # 66, urine specimen", "value": 8}, {"measurement": "QolorAST MIC Manual (MA-MIC)", "setting": "E. coli [1]; Patient # 67*, urine specimen", "value": "<0.25"}, {"measurement": "QolorAST MIC SVM (SVM-MIC)", "setting": "E. coli [1]; Patient # 67*, urine specimen", "value": "<0.25"}, {"measurement": "QolorAST MIC Manual (MA-MIC)", "setting": "E. coli [1]; Patient # 68, urine specimen", "value": 8}, {"measurement": "QolorAST MIC SVM (SVM-MIC)", "setting": "E. coli [1]; Patient # 68, urine specimen", "value": 8}, {"measurement": "Broth Microdilution MIC (MIC)", "setting": "E. coli [2]; Patient # 49, E. coli", "value": 8}, {"measurement": "Broth Microdilution MIC (MIC)", "setting": "E. coli [2]; Patient # 50, E. coli", "value": 8}, {"measurement": "Broth Microdilution MIC (MIC)", "setting": "E. coli [2]; Patient # 51*, E. coli", "value": 16}, {"measurement": "Broth Microdilution MIC (MIC)", "setting": "E. coli [2]; Patient # 52, E. coli", "value": 16}, {"measurement": "Broth Microdilution MIC (MIC)", "setting": "E. coli [2]; Patient # 53, E. coli", "value": 6}, {"measurement": "Broth Microdilution MIC (MIC)", "setting": "E. coli [2]; Patient # 54, E. coli", "value": 4}, {"measurement": "Broth Microdilution MIC (MIC)", "setting": "E. coli [2]; Patient # 55, E. coli", "value": 8}, {"measurement": "Broth Microdilution MIC (MIC)", "setting": "E. coli [2]; Patient # 56, E. coli", "value": 8}, {"measurement": "Broth Microdilution MIC (MIC)", "setting": "E. coli [2]; Patient # 57, E. coli", "value": 8}, {"measurement": "Broth Microdilution MIC (MIC)", "setting": "E. coli [2]; Patient # 58, E. coli", "value": 8}, {"measurement": "Broth Microdilution MIC (MIC)", "setting": "E. coli [2]; Patient # 59, E. coli", "value": 16}, {"measurement": "Broth Microdilution MIC (MIC)", "setting": "E. coli [2]; Patient # 60, E. coli", "value": 16}, {"measurement": "Broth Microdilution MIC (MIC)", "setting": "E. coli [2]; Patient # 61, E. coli", "value": 4}, {"measurement": "Broth Microdilution MIC (MIC)", "setting": "E. coli [2]; Patient # 62, E. coli", "value": 6}, {"measurement": "Broth Microdilution MIC (MIC)", "setting": "E. coli [2]; Patient # 63, E. coli", "value": 4}, {"measurement": "Broth Microdilution MIC (MIC)", "setting": "E. coli [2]; Patient # 64, E. coli", "value": 8}, {"measurement": "Broth Microdilution MIC (MIC)", "setting": "E. coli [2]; Patient # 65, E. coli", "value": 8}, {"measurement": "Broth Microdilution MIC (MIC)", "setting": "E. coli [2]; Patient # 66, E. coli", "value": 8}, {"measurement": "Broth Microdilution MIC (MIC)", "setting": "E. coli [2]; Patient # 67*, E. coli", "value": 2}, {"measurement": "Broth Microdilution MIC (MIC)", "setting": "E. coli [2]; Patient # 68, E. coli", "value": 8}]}
